Assay results taken from US20240279241A1, “PYRIDO[4,3-D]PYRIMIDINE COMPOUNDS CAPABLE OF INHIBITING KRAS MUTANT PROTEINS” (Redx Pharma PLC, priority 2021, published 2024).
Like-named read-outs stand apart in the source and are kept apart here.

Tests used:
[1] = target: T1, KRAS WT (Homo sapiens, UniProt P01116); assay: HTRF nucleotide exchange assay (NEA), KRAS WT; format: biochemical
T1 construct: Recombinant human RAS protein (2 nM); aa1-188 KRAS WT
Description: (§1) The capacity of compounds to bind KRAS G12D, other KRAS mutants and wildtype RAS isoforms was quantified using a HTRF nucleotide exchange assay. Recombinant human RAS protein (2 nM; aa1-188 KRAS WT, HRAS WT, NRAS WT, or KRAS containing the containing the G12D, G13D or Q61H amino acid substitutions, or 4 nM KRAS; aa1-188 containing the G12V, G12C, G12A or G12S amino acid substitution, an N-terminal 6×His-tag and leader sequence), and 2 nM Europium-labeled anti-6×His antibody were mixed in assay buffer (10 mM HEPES pH7.3, 150 mM NaCl, 5 mM MgCl2, 0.05% BSA, 0.0025% NP-40 and 100 mM KF) with various concentrations of compound in a 384-well plate and a volume of 5 uL. After a 60-minute incubation at room temperature, 5 ul of 200 nM EDA-GTP-DY647P1 (diluted in assay buffer) was added to the plate. Following 30-minute incubation at room temperature, time-resolved fluorescence was measured on a PerkinElmer Envision plate reader. DMSO (0.3%) and unlabeled […] (1 μM) or equivalent tool compound were used to generate the Max and Min assay signals, respectively. Data was analysed using a four-parameter logistic model to calculate IC50 values, with at least two independent replicates were performed for each compound.

[2] = target: T2, KRAS G12D (Homo sapiens, UniProt P01116, G12D); assay: HTRF nucleotide exchange assay (NEA), KRAS G12D; format: biochemical; conditions: recombinant human KRAS G12D aa1-188, 2 nM; lowest class = % inhibition at 10 μM
T2 construct: Recombinant human RAS protein (2 nM)
T2 sequence (P01116 1-188 isoform P01116-2 G12D): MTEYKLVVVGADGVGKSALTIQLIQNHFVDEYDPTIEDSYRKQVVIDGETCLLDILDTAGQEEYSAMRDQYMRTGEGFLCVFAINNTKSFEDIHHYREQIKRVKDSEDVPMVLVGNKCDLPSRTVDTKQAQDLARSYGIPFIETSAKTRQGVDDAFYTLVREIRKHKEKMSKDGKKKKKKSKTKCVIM
Description: as §1

T1 sequence (P01116 1-188 isoform P01116-2): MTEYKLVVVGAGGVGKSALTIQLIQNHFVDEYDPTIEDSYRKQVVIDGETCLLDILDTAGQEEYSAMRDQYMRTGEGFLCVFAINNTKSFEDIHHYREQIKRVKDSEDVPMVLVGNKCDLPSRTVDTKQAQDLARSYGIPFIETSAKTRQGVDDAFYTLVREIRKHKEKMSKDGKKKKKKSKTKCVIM

IC50 [1] | IC50 [2] | IC50 ([1]; recombinant human KRAS WT aa1-188, 2 nM, lowest class = % inhibition at 10 μM) | Structure (SMILES)
≤ 10 nM | ≤ 10 nM |  | C#Cc1c(F)ccc2cc(O)cc(-c3ncc4c(N5CCNC(=O)CC5)nc(OC[C@@]56CCCN5C[C@H](F)C6)nc4c3F)c12 (relative stereo) [Example 87, 1-[7-(8-ethynyl-7-fluoro-3-hydroxy-1-naphthyl)-8-fluoro-2-[[trans-2-fluoro-1,2,3,5,6,7-hexahydropyrrolizin-8-yl]methoxy]pyrido [4,3-d]pyrimidin-4-yl]-1,4-diazepan-5-one]
100 to 10000 nM | 100 to 10000 nM |  | Nc1nc2c(-c3ncc4c(N5CCCOCC5)nc(OC[C@@]56CCCN5C[C@H](F)C6)nc4c3F)cccc2s1 (relative stereo) [Example 94, 4-[8-fluoro-4-(1,4-oxazepan-4-yl)-2-[[trans-2-fluoro-1,2,3,5,6,7-hexahydropyrrolizin-8-yl]methoxy]pyrido[4,3-d]pyrimidin-7-yl]-1,3-benzothiazol-2-amine]
100 to 10000 nM | 100 to 10000 nM |  | COCCNc1nc(OCC23CCCN2CCC3)nc2c(F)c(-c3cc(O)cc4ccccc34)ncc12 [Example 12]
100 to 10000 nM | 100 to 10000 nM |  | Oc1cc(-c2ncc3c(NC4CCOCC4)nc(OCC45CCCN4CCC5)nc3c2F)c2ccccc2c1 [Example 15, 4-[8-fluoro-2-(1,2,3,5,6,7-hexahydropyrrolizin-8-ylmethoxy)-4-(tetrahydropyran-4-ylamino)pyrido[4,3-d]pyrimidin-7-yl]naphthalen-2-ol]
100 to 10000 nM | 100 to 10000 nM |  | COC1CCN(c2nc(OCC34CCCN3CCC4)nc3c(F)c(-c4cc(O)cc5ccccc45)ncc23)CC1 [Example 21, 4-[8-fluoro-2-(1,2,3,5,6,7-hexahydropyrrolizin-8-ylmethoxy)-4-(4-methoxy-1-piperidyl)pyrido[4,3-d]pyrimidin-7-yl]naphthalen-2-ol]
100 to 10000 nM | 100 to 10000 nM |  | CN(c1nc(OCC23CCCN2CCC3)nc2c(F)c(-c3cc(O)cc4ccccc34)ncc12)C1CCOCC1 [Example 23, 4-[8-fluoro-2-(1,2,3,5,6,7-hexahydropyrrolizin-8-ylmethoxy)-4-[methyl(tetrahydro-pyran-4-yl)amino]pyrido[4,3-d]pyrimidin-7-yl]naphthalen-2-ol]
 | 100 to 10000 nM | 100 to 10000 nM | COCCCNc1nc(OCC23CCCN2CCC3)nc2c(F)c(-c3cc(O)cc4ccccc34)ncc12 [Example 29, 4-[8-fluoro-2-(1,2,3,5,6,7-hexahydropyrrolizin-8-ylmethoxy)-4-(3-methoxypropylamino)pyrido[4,3-d]pyrimidin-7-yl]naphthalen-2-ol]
100 to 10000 nM | 100 to 10000 nM |  | CC(C)OCCCNc1nc(OCC23CCCN2CCC3)nc2c(F)c(-c3cc(O)cc4ccccc34)ncc12 [Example 30, 4-[8-fluoro-2-(1,2,3,5,6,7-hexahydropyrrolizin-8-ylmethoxy)-4-(3-isopropoxypropyl-amino)pyrido[4,3-d]pyrimidin-7-yl]naphthalen-2-ol]
100 to 10000 nM | 100 to 10000 nM |  | Oc1cc(-c2ncc3c(NC4CCCCC4)nc(OCC45CCCN4CCC5)nc3c2F)c2ccccc2c1 [Example 35, 4-[4-(cyclohexylamino)-8-fluoro-2-(1,2,3,5,6,7-hexahydropyrrolizin-8-ylmethoxy)pyrido [4,3-d]pyrimidin-7-yl]naphthalen-2-ol]
100 to 10000 nM | 100 to 10000 nM |  | Oc1cc(-c2ncc3c(N4CC5COCC5C4)nc(OCC45CCCN4CCC5)nc3c2F)c2ccccc2c1 (stereo not drawn) [Example 37, 4-[4-(1,3,3a,4,6,6a-hexahydrofuro[3,4-c]pyrrol-5-yl)-8-fluoro-2-(1,2,3,5,6,7-hexahydropyrrolizin-8-ylmethoxy)pyrido [4,3-d]pyrimidin-7-yl]naphthalen-2-ol]
100 to 10000 nM | 100 to 10000 nM |  | OCCCNc1nc(OCC23CCCN2CCC3)nc2c(F)c(-c3cc(O)cc4ccccc34)ncc12 [Example 39, 4-[8-fluoro-2-(1,2,3,5,6,7-hexahydropyrrolizin-8-ylmethoxy)-4-(3-hydroxypropylamino)pyrido[4,3-d]pyrimidin-7-yl]naphthalen-2-ol]
100 to 10000 nM | 100 to 10000 nM |  | CN(C)C(=O)CCNc1nc(OCC23CCCN2CCC3)nc2c(F)c(-c3cc(O)cc4ccccc34)ncc12 [Example 40, 3-[[8-fluoro-2-(1,2,3,5,6,7-hexahydropyrrolizin-8-ylmethoxy)-7-(3-hydroxy-1-naphthyl)pyrido[4,3-d]pyrimidin-4-yl]amino]-N,N-dimethyl-propanamide]
100 to 10000 nM | 100 to 10000 nM |  | COC1CCCN(c2nc(OCC34CCCN3CCC4)nc3c(F)c(-c4cc(O)cc5ccccc45)ncc23)C1 (stereo not drawn) [Example 42, 4-[8-fluoro-2-(1,2,3,5,6,7-hexahydropyrrolizin-8-ylmethoxy)-4-(3-methoxy-1-piperidyl)pyrido[4,3-d]pyrimidin-7-yl]naphthalen-2-ol]
100 to 10000 nM | 100 to 10000 nM |  | COCC(C)(C)CNc1nc(OCC23CCCN2CCC3)nc2c(F)c(-c3cc(O)cc4ccccc34)ncc12 [Example 43, 4-[8-fluoro-2-(1,2,3,5,6,7-hexahydropyrrolizin-8-ylmethoxy)-4-[(3-methoxy-2,2-dimethyl-propyl)amino]pyrido [4,3-d]pyrimidin-7-yl]naphthalen-2-ol]
100 to 10000 nM | 100 to 10000 nM |  | COCCC(C)Nc1nc(OCC23CCCN2CCC3)nc2c(F)c(-c3cc(O)cc4ccccc34)ncc12 (stereo not drawn) [Example 44, 4-[8-fluoro-2-(1,2,3,5,6,7-hexahydropyrrolizin-8-ylmethoxy)-4-[(3-methoxy-1-methyl-propyl)amino]pyrido [4,3-d]pyrimidin-7-yl]naphthalen-2-ol]
100 to 10000 nM | 100 to 10000 nM |  | Oc1cc(-c2ncc3c(N4CCC5(CCOC5)C4)nc(OCC45CCCN4CCC5)nc3c2F)c2ccccc2c1 (stereo not drawn) [Example 48, 4-[8-fluoro-2-(1,2,3,5,6,7-hexahydropyrrolizin-8-ylmethoxy)-4-(2-oxa-7-azaspiro[4.4]nonan-7-yl)pyrido [4,3-d]pyrimidin-7-yl]naphthalen-2-ol]
100 to 10000 nM | 100 to 10000 nM |  | Oc1cc(-c2ncc3c(N4CC5COCC(C5)C4)nc(OCC45CCCN4CCC5)nc3c2F)c2ccccc2c1 [Example 49, 4-[8-fluoro-2-(1,2,3,5,6,7-hexahydropyrrolizin-8-ylmethoxy)-4-(3-oxa-7-azabicyclo[3.3.1]nonan-7-yl)pyrido[4,3-d]pyrimidin-7-yl]naphthalen-2-ol]
100 to 10000 nM | 100 to 10000 nM |  | Oc1cc(-c2ncc3c(N4CC5(CCCOC5)C4)nc(OCC45CCCN4CCC5)nc3c2F)c2ccccc2c1 [Example 53, 4-[8-fluoro-2-(1,2,3,5,6,7-hexahydropyrrolizin-8-ylmethoxy)-4-(6-oxa-2-azaspiro[3.5]nonan-2-yl)pyrido[4,3-d]pyrimidin-7-yl]naphthalen-2-ol]
100 to 10000 nM | 100 to 10000 nM |  | COC(C)(C)CCNc1nc(OCC23CCCN2CCC3)nc2c(F)c(-c3cc(O)cc4ccccc34)ncc12 [Example 54, 4-[8-fluoro-2-(1,2,3,5,6,7-hexahydropyrrolizin-8-ylmethoxy)-4-[(3-methoxy-3-methyl-butyl)amino]pyrido [4,3-d]pyrimidin-7-yl]naphthalen-2-ol]
100 to 10000 nM | 100 to 10000 nM |  | Oc1cc(-c2ncc3c(N4CCn5nccc5C4)nc(OCC45CCCN4CCC5)nc3c2F)c2ccccc2c1 [Example 57, 4-[4-(6,7-dihydro-4H-pyrazolo[1,5-a]pyrazin-5-yl)-8-fluoro-2-(1,2,3,5,6,7-hexahydropyrrolizin-8-ylmethoxy)pyrido [4,3-d]pyrimidin-7-yl]naphthalen-2-ol]
100 to 10000 nM | 100 to 10000 nM |  | Oc1cc(-c2ncc3c(N4CCn5cncc5C4)nc(OCC45CCCN4CCC5)nc3c2F)c2ccccc2c1 [Example 58, 4-[4-(6,8-dihydro-5H-imidazo[1,5-a]pyrazin-7-yl)-8-fluoro-2-(1,2,3,5,6,7-hexahydropyrrolizin-8-ylmethoxy)pyrido [4,3-d]pyrimidin-7-yl]naphthalen-2-ol]
100 to 10000 nM | 100 to 10000 nM |  | Oc1cc(-c2ncc3c(N4CCn5ccnc5C4)nc(OCC45CCCN4CCC5)nc3c2F)c2ccccc2c1 [Example 60, 4-[4-(6,8-dihydro-5H-imidazo[1,2-a]pyrazin-7-yl)-8-fluoro-2-(1,2,3,5,6,7-hexahydropyrrolizin-8-ylmethoxy)pyrido [4,3-d]pyrimidin-7-yl]naphthalen-2-ol]
100 to 10000 nM | 100 to 10000 nM |  | Oc1cc(-c2ncc3c(N4CCc5[nH]ncc5C4)nc(OCC45CCCN4CCC5)nc3c2F)c2ccccc2c1 [Example 61, 4-[8-fluoro-2-(1,2,3,5,6,7-hexahydropyrrolizin-8-ylmethoxy)-4-(1,4,6,7-tetrahydropyrazolo [4,3-c]pyridin-5-yl)pyrido[4,3-d]pyrimidin-7-yl]naphthalen-2-ol]
100 to 10000 nM | 100 to 10000 nM |  | Oc1cc(-c2ncc3c(N4CCc5cn[nH]c5C4)nc(OCC45CCCN4CCC5)nc3c2F)c2ccccc2c1 [Example 62, 4-[8-fluoro-2-(1,2,3,5,6,7-hexahydropyrrolizin-8-ylmethoxy)-4-(1,4,5,7-tetrahydropyrazolo [3,4-c]pyridin-6-yl)pyrido[4,3-d]pyrimidin-7-yl]naphthalen-2-ol]
